Data taken from US6979690B2, “Oxo or oxy-pyridine compounds as 5-HT4 receptor modulators” (Pfizer Inc., priority 2002, dated 2005).

First: CCN1CCC(CNC(=O)c2cc(Cl)c(N)[nH]c2=O)CC1 [Example 1, 6-Amino-5-chloro-N-[(1-ethyl-4-piperidinyl)methyl]-2-oxo-1,2-dihydro-3-pyridinecarboxamide]
Second: CC(C)CN1CCC(CNC(=O)c2cc(Cl)c(N)[nH]c2=O)CC1 [Example 6, 6-Amino-5-chloro-N-{[1-(2-methylpropyl)-4-piperidinyl]methyl}-2-oxo-1,2-dihydro-3-pyridinecarboxamide]
The melting point of the first is higher: 136 to 140 °C for the first, 128 to 133 °C for the second.

Compared with CC(C)(C)C(O)CN1CCC(CCC(=O)c2cc(Cl)c(N)[nH]c2=O)CC1 (stereo not drawn) [Example 108, 6-Amino-5-chloro-3-{3-[1-(2-hydroxy-3,3-dimethylbutyl)-piperidine-4-yl]propanoyl}pyridin-2(1H)-one], CC(C)CN1CCC(CCC(=O)c2cc(Cl)c(N)[nH]c2=O)CC1 [Example 15, 6-Amino-5-chloro-3-[3-(1-isobutyl-4-piperidinyl)propanoyl]-2(1H)-pyridinone] is lower in melting point: 211.3 °C for the first, 175 °C for the second.

First: CCCCN1CCC(CCC(=O)c2cc(Cl)c(N)nc2OC)CC1 [Example 10, 1-[6-Amino-5-chloro-2-(methoxy)-3-pyridinyl]-3-(1-butyl-4-piperidinyl)-1-propanone]
Second: COc1nc(N)c(Cl)cc1C(=O)CCC1CCN(CC(C)C)CC1 [Example 14, 1-(6-Amino-5-chloro-2-methoxy-3-pyridinyl)-3-(1-isobutyl-4-piperidinyl)-1-propanone]
The melting point of the first is lower: 86 to 87 °C for the first, 128 °C for the second.

Compared with COc1nc(N)c(Cl)cc1C(=O)CCC1CCN(CC(C)(C)O)CC1 [Example 109, 1-(6-Amino-5-chloro-2-methoxypyridin-3-yl)-3-[1-(2-hydroxy-2-methylpropyl)piperidine-4-yl]propan-1-one], COc1nc(N)c(Cl)cc1C(=O)CCC1CCN(CC(O)C(C)(C)C)CC1 (stereo not drawn) [Example 107, 1-(6-Amino-5-chloro-2-methoxypyridin-3-yl)-3-[1-(2-hydroxy-3,3-dimethylbutyl)piperidine-4-yl]propan-1-one] is higher in melting point: 108.1 °C for the first, 134 °C for the second.

Compared with CCCCN1CCC(CCC(=O)c2ccc(N)nc2OC)CC1 [Example 12, 1-(6-Amino-2-methoxy-3-pyridinyl)-3-(1-butyl-4-piperidinyl)-1-propanone], COc1nc(N)ccc1C(=O)CCC1CCN(CC2CCCCC2)CC1 [Example 16, 1-(6-Amino-2-methoxy-3-pyridinyl)-3-[1-(cyclohexylmethyl)-4-piperidinyl]-1-propanone] is lower in melting point: 85 to 89 °C for the first, 73.2 °C for the second.

Compared with CC(C)(C)OC(=O)CN1CCC(CNC(=O)c2cc(Cl)c(N)[nH]c2=O)CC1 [Example 8, 1,1-Dimethylethyl [4-({[(6-amino-5-chloro-2-oxo-1,2-dihydro-3-pyridinyl)carbonyl]amino}methyl)-1-piperidinyl]acetate], CCOC(=O)CN1CCC(CNC(=O)c2cc(Cl)c(N)[nH]c2=O)CC1 [Example 7, Ethyl [4-({[(6-amino-5-chloro-2-oxo-1,2-dihydro-3-pyridinyl)carbonyl]amino}methyl)-1-piperidinyl]acetate] is lower in melting point: 200 to 203 °C for the first, 162 to 164 °C for the second.

First: COc1nc(N)c(Cl)cc1C(=O)CCC1CCNCC1.Cl
Second: Nc1[nH]c(=O)c(C(=O)CCC2CCN(CC3CCCCC3)CC2)cc1Cl [Example 106, 6-Amino-5-chloro-3-{3-[1-(cyclohexylmethyl)piperidine-4-yl]propanoyl}pyridin-2(1H)-one]
The melting point of the first is higher: 230.6 °C for the first, 164.3 °C for the second.

Work on CC(C)CCN1CCC(CNC(=O)c2cc(Cl)c(N)[nH]c2=O)CC1 [Example 5, 6-Amino-5-chloro-N-{[1-(3-methylbutyl)-4-piperidinyl]methyl}-2-oxo-1,2-dihydro-3-pyridinecarboxamide] yielded a melting point of 131 to 135 °C.
